These compounds were tested against TNFα trimer (Homo sapiens, UniProt P01375) (assay: TNFα FP Competitive Binding Assay). Details: FP binding assay; 20 nM TNFα trimer, 1 nM OregonGreen488 probe; read-out: TNF IC50.
Method in brief: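 Fluorescence polarization competition: 20 nM TNFα trimer with 1 nM fluorescein-labelled probe in HEPES/NaCl/EDTA/Triton X-100 buffer, compound in 12-point 1:3 dilutions (final top 338 μM or 100 μM). Incubated 18-24 h, background-subtracted mP read, variable-slope dose-response fitting.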

Sequence of TNFα trimer (P01375 77-233 limits assumed): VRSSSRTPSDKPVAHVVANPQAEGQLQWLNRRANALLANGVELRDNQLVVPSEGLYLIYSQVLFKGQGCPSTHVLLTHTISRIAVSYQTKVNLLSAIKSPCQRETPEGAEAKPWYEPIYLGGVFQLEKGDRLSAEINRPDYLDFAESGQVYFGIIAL

| IC50 [nM] | Structure (SMILES) |
| --- | --- |
| < 1000 | Cn1c(=O)c2ccc(-c3cnc(N4CCN5C(=O)NC[C@@H]5C4)nc3)cc2n1Cc1cc(CO)ccc1OC(F)F [Example 16.1, (R)-7-(5-(1-(2-(difluoromethoxy)-5-(hydroxymethyl)benzyl)-2-methyl-3-oxo-2,3-dihydro-1H-indazol-6-yl)pyrimidin-2-yl)hexahydroimidazo[1,5-a]pyrazin-3(2H)-one] |
| 1000 to 10000 | CN1CCC(Nc2ncc(-c3ccc4c(=O)n(C)n(Cc5cc(CO)ccc5OC(F)F)c4c3)cn2)C1=O (centres unmarked) [Example 16.2] |
| < 1000 | Cn1c(=O)c2ccc(-c3cnc(N4CCN5C(=O)OC[C@@H]5C4)nc3)cc2n1Cc1cc(CO)ccc1OC(F)F [Example 16.3, (S)-7-(5-(1-(2-(difluoromethoxy)-5-(hydroxymethyl)benzyl)-2-methyl-3-oxo-2,3-dihydro-1H-indazol-6-yl)pyrimidin-2-yl)tetrahydro-1H-oxazolo[3,4-a]pyrazin-3(5H)-one] |
| < 1000 | Cn1c(=O)c2ccc(-c3cnc(N4CCN5C(=O)OC[C@H]5C4)nc3)cc2n1Cc1cc(CO)ccc1OC(F)F [Example 16.4] |
| < 1000 | Cn1c(=O)c2ccc(-c3cnc(NC4CCNC(=O)C4)nc3)cc2n1Cc1cc(CO)ccc1OC(F)F (centres unmarked) [Example 16.5] |
| 1000 to 10000 | Cn1c(=O)c2ccc(-c3cnc(NC4CCNC4=O)nc3)cc2n1Cc1cc(CO)ccc1OC(F)F (centres unmarked) [Example 16.6] |
| < 1000 | Cn1c(=O)c2ccc(-c3cnc(C(C)(C)O)nc3)cc2n1Cc1cc(CO)ccc1OC(F)F [Example 16.7] |
| < 1000 | CC(=O)N1CCN(c2ncc(-c3ccc4c(=O)n(C)n(Cc5cc(CO)ccc5OC(F)F)c4c3)cn2)CC1 [Example 16.8] |
| < 1000 | CN1CCC(Nc2ncc(-c3ccc4c(=O)n(C)n(Cc5cc(CO)ccc5OC(F)F)c4c3)cn2)CC1=O (centres unmarked) [Example 16.9] |
| < 1000 | Cn1c(=O)c2ccc(-c3cnc(N4CCN5C(=O)NC[C@@H]5C4)nc3)cc2n1Cc1nc(CO)ccc1C(F)(F)F [Example 16.10] |
| > 10000 | Cn1c(=O)c2cnc(-c3cnc(N4CCOCC4)nc3)cc2n1Cc1ccccc1OC(F)F [Example 17, 1-(2-(Difluoromethoxy)benzyl)-2-methyl-6-(2-morpholinopyrimidin-5-yl)-1H-pyrazolo[4,3-c]pyridin-3(2H)-one] |
| < 1000 | Cc1ccc(OC(F)F)c(Cn2c3cc(-c4cnc(C(C)(C)O)nc4)c(F)cc3c(=O)n2C)c1 [Example 17.1] |
| < 1000 | Cc1ccc(OC(F)F)c(Cn2c3cc(-c4cnc(C(C)(C)O)nc4C)c(F)cc3c(=O)n2C)c1 [Example 17.2] |
| < 1000 | Cc1ccc(OC(F)F)c(Cn2c3cc(-c4cnc(N5CCN(C(=O)CO)C[C@H]5C)nc4)c(F)cc3c(=O)n2C)c1 [Example 17.3] |
| < 1000 | Cc1ccc(OC(F)F)c(Cn2c3cc(-c4cnc(C(C)(C)CO)nc4)c(F)cc3c(=O)n2C)c1 [Example 17.4] |
| < 1000 | Cn1c(=O)c2ccc(-c3cnc(N4CCN5C(=O)NC[C@H]5C4)nc3)cc2n1Cc1cc(CO)ccc1OC(F)F [Example 18, (S)-7-(5-(1-(2-(Difluoromethoxy)-5-(hydroxymethyl)benzyl)-2-methyl-3-oxo-2,3-dihydro-1H-indazol-6-yl)pyrimidin-2-yl)hexahydroimidazo[1,5-a]pyrazin-3(2H)-one] |
| < 1000 | CC(=O)N1CCN(c2ncc(-c3ccc4c(=O)n(C)n(Cc5cc(C)ccc5SC(F)F)c4n3)cn2)C[C@H]1C [Example 18.1] |
| < 1000 | CC(=O)N1CCN(c2ncc(-c3ccc4c(=O)n(C)n(Cc5cc(C)ccc5OC(F)F)c4n3)cn2)C[C@H]1C [Example 18.2] |
| < 1000 | CC(=O)N1CCN(c2ncc(-c3ccc4c(=O)n(C)n(Cc5cc(C)ccc5Cl)c4n3)cn2)C[C@H]1C [Example 18.3] |
| < 1000 | C[C@@H]1C[C@@H](O)CCN1c1ncc(-c2ccc3c(=O)n(C)n(Cc4ccccc4OC(F)F)c3c2)cn1 [Example 19, 1-(2-(Difluoromethoxy)benzyl)-6-(2-((2R,4S)-4-hydroxy-2-methylpiperidin-1-yl)pyrimidin-5-yl)-2-methyl-1H-indazol-3(2H)-one] |
| < 1000 | CC(=O)N1CCN(c2ncc(-c3ccc4c(=O)n(C)n(Cc5nc(C)ccc5C(F)(F)F)c4c3)cn2)C[C@H]1C [Example 19.1] |
| < 1000 | Cc1ccc(C(F)(F)F)c(Cn2c3cc(-c4cnc(N5CCN6C(=O)NC[C@H]6C5)nc4)ccc3c(=O)n2C)n1 [Example 19.2] |
| < 1000 | Cc1ccc(C(F)(F)F)c(Cn2c3cc(-c4cnc(N5CCN(C(=O)CO)[C@H](C)C5)nc4)ccc3c(=O)n2C)n1 [Example 19.3] |
| < 1000 | Cc1ccc(C(F)(F)F)c(Cn2c3cc(-c4cnc(N5CCN6C(=O)OC[C@H]6C5)nc4)ccc3c(=O)n2C)n1 [Example 19.4] |
| < 1000 | Cc1ccc(C(F)(F)F)c(Cn2c3cc(-c4cnc(N5CCN(C(=O)CO)C[C@H]5C)nc4)ccc3c(=O)n2C)n1 [Example 19.5] |
| 1000 to 10000 | Cn1c(=O)c2ccc(-c3cnc(C4(O)CCN(C=O)CC4)nc3)cc2n1Cc1ccccc1OC(F)F [Example 20, 4-(5-(1-(2-(Difluoromethoxy)benzyl)-2-methyl-3-oxo-2,3-dihydro-1H-indazol-6-yl)pyrimidin-2-yl)-4-hydroxypiperidine-1-carbaldehyde] |
| 1000 to 10000 | Cc1ccc(OC(F)F)c(Cn2c3cc(-c4cnc(N5CCC(C(N)=O)C5)nc4)ccc3c(=O)n2C)c1 (centres unmarked) [Example 20.1] |

| IC50 [nM] | Structure (SMILES) |
| --- | --- |
| < 1000 | Cc1ccc(OC(F)F)c(Cn2c3cc(-c4cnc(N5CCN6C(=O)OC[C@@H]6C5)nc4)ccc3c(=O)n2C)c1 [Example 20.2] |
| < 1000 | CC(=O)N1CCN(c2ncc(-c3ccc4c(=O)n(C)n(Cc5cc(C)ccc5OC(F)F)c4c3)cn2)[C@H](C)C1 [Example 20.4] |
| < 1000 | CC[C@@H]1CN(C(C)=O)CCN1c1ncc(-c2ccc3c(=O)n(C)n(Cc4cc(C)ccc4OC(F)F)c3c2)cn1 [Example 20.5] |
| < 1000 | C[C@H](N)C(=O)OCc1ccc(OC(F)F)c(Cn2c3cc(-c4cnc(N5CCN6C(=O)OC[C@@H]6C5)nc4)ccc3c(=O)n2C)c1 [Example 21, (S)-4-(Difluoromethoxy)-3-((2-methyl-3-oxo-6-(2-((S)-3-oxotetrahydro-1H-oxazolo[3,4-a]pyrazin-7(3H)-yl)pyrimidin-5-yl)-2,3-dihydro-1H-indazol-1-yl)methyl)benzyl 2-aminopropanoate] |
| < 1000 | COCC(=O)N1CCN(c2ncc(-c3ccc4c(=O)n(C)n(Cc5cc(C)ccc5OC(F)F)c4c3)cn2)C[C@H]1C [Example 21.1] |
| < 1000 | Cc1ccc(OC(F)F)c(Cn2c3cc(-c4cnc(N5CCN(C(=O)C6COC6)[C@H](C)C5)nc4)ccc3c(=O)n2C)c1 [Example 21.2] |
| < 1000 | Cc1ccc(OC(F)F)c(Cn2c3cc(-c4cnc(N5CCN(C(=O)C6CCO6)[C@H](C)C5)nc4)ccc3c(=O)n2C)c1 (some centres unmarked) [Example 21.3] |
| < 1000 | Cc1ccc(OC(F)F)c(Cn2c3cc(-c4cnc(N5CCN(C(=O)CC#N)[C@H](C)C5)nc4)ccc3c(=O)n2C)c1 [Example 21.4] |
| < 1000 | Cc1ccc(OC(F)F)c(Cn2c3cc(-c4cnc(N5CCC(O)CC5)nc4)ccc3c(=O)n2C)c1 [Example 22, 1-(2-(Difluoromethoxy)-5-methylbenzyl)-6-(2-(4-hydroxypiperidin-1-yl)pyrimidin-5-yl)-2-methyl-1H-indazol-3(2H)-one] |
| < 1000 | Cc1ccc(OC(F)F)c(Cn2c3cc(-c4cnc(N5CCN(C(=O)CO)CC5)nc4)ccc3c(=O)n2C)c1 [Example 22.1] |
| < 1000 | CC(=O)N1CCN(c2ncc(-c3ccc4c(=O)n(C)n(Cc5cc(C)ccc5OC(F)F)c4c3)cn2)[C@@H](C)C1 [Example 22.2] |
| < 1000 | Cc1ccc(OC(F)F)c(Cn2c3cc(-c4cnc(N5CCN(C(=O)CO)[C@H](C)C5)nc4)ccc3c(=O)n2C)c1 [Example 22.3] |
| < 1000 | Cc1ccc(OC(F)F)c(Cn2c3cc(-c4cnc(N5CCN(C(=O)CO)C[C@H]5C)nc4)ccc3c(=O)n2C)c1 [Example 22.4] |
| < 1000 | Cc1ccc(OC(F)F)c(Cn2c3cc(-c4cnc(C(C)(C)O)nc4C)ccc3c(=O)n2C)c1 [Example 22.5] |
| < 1000 | CC(=O)N1CCN(c2ncc(-c3ccc4c(=O)n(C)n(Cc5cc(C)ccc5OC(F)F)c4c3)cn2)CC1 [Example 22.6] |
| 1000 to 10000 | Cc1ccc(OC(F)F)c(Cn2c3cc(-c4cnc(N5CCC[C@H]5CO)nc4)ccc3c(=O)n2C)c1 [Example 22.7] |
| 1000 to 10000 | Cc1ccc(OC(F)F)c(Cn2c3cc(-c4cnc(N5CCC[C@@H]5CO)nc4)ccc3c(=O)n2C)c1 [Example 22.8] |
| 1000 to 10000 | Cc1ccc(OC(F)F)c(Cn2c3cc(-c4cnc(C(C)(C)CO)nc4)ccc3c(=O)n2C)c1 [Example 22.9] |
| < 1000 | CC(=O)N1CCN(c2ncc(-c3ccc4c(=O)n(C)n(Cc5cc(C)ccc5OC(F)F)c4c3)cn2)C[C@H]1CO [Example 22.10] |
| < 1000 | CC(=O)N1CCN(c2ncc(-c3ccc4c(=O)n(C)n(Cc5cc(C)ccc5OC(F)F)c4c3)cn2)C[C@@H]1CO [Example 22.11] |
| < 1000 | Cc1ccc(OC(F)F)c(Cn2c3cc(-c4cnc(N5CCN6C(=O)OC[C@H]6C5)nc4)ccc3c(=O)n2C)c1 [Example 22.12] |
| < 1000 | Cc1ccc(OC(F)F)c(Cn2c3cc(-c4ccnc(OC5CCOCC5)c4)ccc3c(=O)n2C)c1 [Example 22.13] |
| < 1000 | CC(=O)N1CCN(c2ncc(-c3ccc4c(=O)n(C)n(Cc5cc(C)ccc5OC(F)F)c4c3)c(C)n2)[C@H](C)C1 [Example 22.14] |
| < 1000 | Cc1ccc(OC(F)F)c(Cn2c3cc(-c4cnc(N5CCN(C(=O)CO)C[C@@H]5C)nc4)ccc3c(=O)n2C)c1 [Example 22.15] |
| < 1000 | COC(=O)N1CCN(c2ncc(-c3ccc4c(=O)n(C)n(Cc5cc(C)ccc5OC(F)F)c4c3)cn2)C[C@H]1C [Example 23, (R)-Methyl 4-(5-(1-(2-(difluoromethoxy)-5-methylbenzyl)-2-methyl-3-oxo-2,3-dihydro-1H-indazol-6-yl)pyrimidin-2-yl)-2-methylpiperazine-1-carboxylate] |
| < 1000 | C[C@@H]1CN(c2ncc(-c3ccc4c(=O)n(C)n(Cc5ccccc5Cl)c4n3)cn2)CCN1C(=O)CO [Example 23.1] |
